Measurements published in paper PMC9841525, “Chemical Blockage of the Mitochondrial Rhomboid Protease PARL by Novel Ketoamide Inhibitors Reveals Its Role in PINK1/Parkin-Dependent Mitophagy” (Journal of Medicinal Chemistry, 2022).
Entries after “also recorded” stand apart in the source; their conditions may differ. Where a SMILES comes first, the peptide text is derived from it. The star is where a group is joined. AMC = Cc1cc(=O)oc2cc(N*)ccc12

Experiments:
HEK293T cells = experiment: JC-1 mitochondrial membrane potential assay; assay type: cell-based, human; details: 5 µM compound 5 or CCCP, at least three hours, compared to DMSO
Experimental: Staining of cells for the determination of mitochondrial membrane potential was carried out with the JC-1 mitochondrial staining kit (Sigma-Aldrich) according to the kit’s instructions; stained cells were immediately taken to live cell imaging.
(§1) For fixation, cells were incubated for 15 min with 4% formaldehyde (16% formaldehyde diluted in PBS, Thermo Scientific) and washed in PBS. The cover glasses were mounted with Fluoromount-G (Southern Biotech) on microscope slides. All microscopy was performed on an LSM 780 system (Carl Zeiss) with a Plan-APOCHROMAT 63× 1.4NA oil objective (Carl Zeiss) and pinhole settings of 1 AU with the Zeiss ZEN 2010 software. Image processing and analysis was performed using ImageJ (http://rsb.info.nih.gov/ij/). […] Parkin recruitment events to the mitochondria were counted by hand throughout each z-stack and cell. […] JC-1 images were handled as summed intensity z-stack projections, as well as subjected to flatfield correction and subtraction of background before measuring the fluorescence levels normalized to the number of cell nuclei. The fluorescence intensity ratio between the red and green signal was calculated and compared to DMSO as a ratio of 1. Data were evaluated using Excel and GraphPad Prism 6.

Parkin [1] = experiment: Parkin recruitment to mitochondria, subcellular fractionation and immunoblot; assay type: cell-based, human; details: HEK293 T-REx PINK1 cells, HA-Parkin-IRES-GFP; 5 μM compound 5, CCCP 10 μM or Antimycin A 30 μM
Experimental: (§2) Inducible stable Flp-In HEK293 T-REx cells expressing PINK1 were described previously.[33] HEK293 T-REx PINK1 and HEK293T cells were grown in DMEM (Gibco) supplemented with 10% (v/v) fetal bovine serum (ThermoFisher), 1% (v/v) GlutaMAX (Gibco), 1% (v/v) sodium pyruvate (Gibco), 125 μg/mL hygromycin (Invitrogen), and 10 μg/mL blasticidin (Gibco) or DMEM supplemented with 10% (v/v) fetal bovine serum, respectively, at 37 °C in 5% (v/v) CO2. For microscopy, cells were seeded on poly-L-lysine (Sigma)-coated slides. Transient plasmid transfections were performed using 25 kDa linear polyethylenimine (Polysciences). Plasmid (100 ng) encoding HA-Parkin-IRES-GFP, mito-mCherry or Parkin-mEGFP, or 500 ng plasmid encoding PGAM5-FLAG were used per 6-well. Total transfected DNA was 2 μg/well. For siRNA transfection, 2 × 10^5 cells were seeded per 6-well and on the next day transfected with 20 nM siRNA-oligonucleotide using lipofectamine RNAiMAX (ThermoFisher). Cells were analyzed 27 h post-transfection or five days post-siRNA-transfection. HEK293 T-REx PINK1 cells were induced with 0.3 μg/mL doxycycline for 24 h before further processing. Hoechst staining (1 μg/mL) was done immediately before adding treatment to the cells. Treatments were administered for the indicated times before processing; CCCP (Sigma) was always used as 10 μM for 3 h and Antimycin A (Sigma) as 30 μM for 3 h.
Unless mentioned otherwise, all steps were performed at 4 °C. For subcellular fractionation to separate cellular content into cytosolic and mitochondrial fractions, cells were washed with PBS, harvested in PBS-EDTA (1 mM EDTA, 0.2 g/L D-glucose), and centrifuged at 500 × g for 5 min. […]
For immunoblot analysis in other cases, cells were either processed as described above or washed with PBS and directly lysed with Tris-glycine SDS-PAGE sample buffer and heated for 15 min at 65 °C. […] For quantification, ImageJ was used (http://rsb.info.nih.gov/ij/). […]

Parkin [2] = experiment: Parkin recruitment to mitochondria and mitochondrial morphology, fluorescence microscopy; assay type: cell-based, human; details: HEK293 T-REx PINK1 cells, 3 h
Experimental: as §2
as §1, with “slides.” for “slides. All microscopy was performed on an LSM 780 system (Carl Zeiss) with a Plan-APOCHROMAT 63× 1.4NA oil objective (Carl Zeiss) and pinhole settings of 1 AU with the Zeiss ZEN 2010 software. Image processing and analysis was performed using ImageJ (http://rsb.info.nih.gov/ij/).”

GlpG [3] = target: T1, GlpG (Escherichia coli, UniProt P09391); assay type: biochemical, E. coli
T1 construct: Full-length GlpG with C-terminal His-tag was overexpressed from pET25b + in E. coli C43(DE3); His-tag (C); made in house; host or cells: E. coli C43(DE3)
T1 sequence (P09391 whole entry): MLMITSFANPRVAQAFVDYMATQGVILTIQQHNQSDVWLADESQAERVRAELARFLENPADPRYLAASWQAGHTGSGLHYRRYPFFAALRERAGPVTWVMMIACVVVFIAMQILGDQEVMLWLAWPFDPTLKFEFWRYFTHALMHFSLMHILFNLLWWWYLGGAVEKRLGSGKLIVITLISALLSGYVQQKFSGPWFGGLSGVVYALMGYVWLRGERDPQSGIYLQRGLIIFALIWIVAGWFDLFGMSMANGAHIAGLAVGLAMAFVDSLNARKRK
Experimental: Emission spectra of aminomethyl coumarin and cleavage of compound 1 were monitored in 50 mM potassium phosphate pH 7.4, 150 mM NaCl, 20% (w/v) glycerol, 0.05% (w/v) PEG8000, 0.05% (w/v) DDM, 10% (w/v) DMSO. The compounds (1 mM) were incubated with 10 μM GlpG WT or S201T, 1 μM elastase, or buffer, respectively, as indicated in the legend of Figure 1A at 37 °C for 1 h. Samples were diluted 8-fold with buffer, and emission spectra were measured in 96-well black HTS plates (Greiner Bio-One) by a plate reader (Tecan Infinite M1000) using an excitation wavelength of 355 nm. Data were evaluated using Excel (Microsoft) and GraphPad Prism 9 (GraphPad Software, Inc.). The data shown are representative of three independent experiments.
(§3) Activity and inhibition assays of GlpG shown in Figure 1B–D were carried out in 50 mM potassium phosphate pH 7.4, 150 mM NaCl, 20% (v/v) glycerol, 0.05% (w/v) PEG8000, 0.05% (w/v) DDM, and 5% (v/v) DMSO. […] All activity measurements were performed at 37 °C in 96-well black HTS plates (Greiner Bio-One) and fluorescence was monitored in a plate reader (Tecan Infinite M1000) with excitation and emission wavelengths set to 355 and 450 nm, respectively, for compound 1, and 335 and 493 nm, respectively, for the transmembrane substrate KSp96. Data were evaluated using Excel (Microsoft) and GraphPad Prism 9 (GraphPad Software, Inc.).
Activity measurements of GlpG with varying DDM concentrations were obtained in 20 mM HEPES (pH 7.4), 150 mM NaCl using 100 nM GlpG, and DDM at the concentration indicated in the graphs. Buffer for measurements with compound 1 contained additionally 5% (v/v) DMSO. Compound 1 and transmembrane substrate were used at 10 μM final concentration. Activity measurements were performed at 37 °C in 96-well black HTS plates (Greiner Bio-One), and fluorescence was monitored in a plate reader (Tecan Infinite M1000) with excitation and emission wavelengths set to 355 and 450 nm for compound 1 and 335 and 493 nm for the transmembrane substrate, respectively. Data were evaluated using Excel (Microsoft) and GraphPad Prism 9 (GraphPad Software, Inc.).

[4] = Solubility of fluorogenic substrates in assay buffer (qualitative)
GlpG [5] = target: T1, GlpG; experiment: Inhibition assay of GlpG with fluorogenic substrate compound 1; assay type: biochemical, E. coli; details: detergent-solubilized GlpG 100 nM, substrate compound 1, 1 h preincubation at 37 °C, mean ± SEM of three measurements
Experimental: as §3

PARL = target: T2, PARL (Homo sapiens, UniProt Q9H300); experiment: In vitro assay for PARL activity, cleavage of AMC substrates by liposome-embedded PARL; assay type: biochemical; set-up: hexahistidine tag (C); made in house; host or cells: continuous-exchange cell-free expression in bacterial lysates with T7 polymerase (CUBE biotech), into liposomes; details: mature PARL in liposomes, S277A catalytic mutant as control
T2 sequence (Q9H300 53-379): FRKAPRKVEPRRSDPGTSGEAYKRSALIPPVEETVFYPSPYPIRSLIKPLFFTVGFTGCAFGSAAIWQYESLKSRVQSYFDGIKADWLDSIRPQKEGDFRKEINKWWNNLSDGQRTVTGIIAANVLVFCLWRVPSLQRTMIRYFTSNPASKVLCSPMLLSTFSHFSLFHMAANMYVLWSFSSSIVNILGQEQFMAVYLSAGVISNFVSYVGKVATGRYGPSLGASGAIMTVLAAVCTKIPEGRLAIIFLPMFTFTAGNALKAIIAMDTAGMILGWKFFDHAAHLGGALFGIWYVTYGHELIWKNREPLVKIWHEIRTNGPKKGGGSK
Experimental: Liposome preparation and cell-free protein expression of PARL were carried out essentially as described previously.[27] Liposomes resembling the lipid composition of the IMM were prepared by mixing 40% DOPC (1,2-dioleoyl-sn-glycero-3-phosphocholine), 33.8% DOPE (1,2-dioleoyl-sn-glycero-3-phosphoethanolamine), 18% CL(18:1)4 (1′,3′-bis[1,2-dioleyl-sn-glycero-3-phospho]-glycerol), 3% DOPS (1,2-dioleoyl-sn-glycero-3-phospho-L-serine), 5% soy-PI (L-α-phosphatidylinositol), and 0.2% rhodamine-PE (1,2-dioleoyl-sn-glycero-3-phosphoethanolamine-N-(lissamine rhodamine B sulfonyl)) in chloroform, followed by the evaporation of chloroform by a stream of nitrogen gas and drying in a vacuum chamber (Binder) for 1 h. […] Concentration of PARL was determined by absorption at 280 nm.
The PARL activity assay in vitro was carried out in 5 mM Tris, 5 mM Mg(OAc)2, 25 μM Zn(OAc)2, 0.1 μg/μL BSA, 30% DMSO, pH 8.0 using PARL in liposomes at 0.05 mg/mL. Compound 3 and 4 were used at 5 μM final concentration based on quantitative amino acid analysis. […] The cleavage reaction was carried out at 37 °C in 96-well black HTS plates (Greiner Bio-One) in a plate reader (Tecan Infinite M1000) with excitation and emission wavelengths set to 355 and 450 nm, respectively. Data were evaluated using Excel (Microsoft) and GraphPad Prism 9 (GraphPad Software, Inc.).

SMILES: N#CC(C#N)=NNc1cccc(Cl)c1 [CCCP, carbonyl cyanide m-chlorophenyl hydrazone]
- Effect on mitochondrial membrane potential (JC-1 aggregate to monomer ratio) (HEK293T cells): lowers the membrane potential
- Parkin recruitment to the mitochondrial fraction (Parkin [1]): significant recruitment of Parkin to the mitochondrial fraction
- Mitochondrial morphology (Parkin [2]): severe rounding and clustering

SMILES: CC(=O)N[C@@H](CCCNC(=N)N)C(=O)N[C@H](C(=O)N[C@@H](CCCNC(=N)N)C(=O)N[C@@H](Cc1c[nH]cn1)C(=O)N[C@@H](C)C(=O)Nc1ccc2c(C)cc(=O)oc2c1)C(C)C [compound 1, AcRVRHA-4mc] (Ac-RVRHA-{AMC})
- Apparent Michaelis constant for substrate (GlpG [3]; GlpG in DDM micelle environment): approximately 500 μM
- Michaelis constant KM for substrate (GlpG [3]; GlpG, detergent): about half
- Cleavage of substrate by GlpG (GlpG [3]; detergent micelles and/or DIBMA lipid nanodiscs): cleaved by GlpG with similar efficiency in lipid nanodiscs and in detergent micelles; also recorded: can be cleaved by active GlpG embedded in polymer nanodiscs
- Solubility of substrate [4]: sufficiently soluble to be useable at hundreds of micromolar concentrations

SMILES: CC(=O)N[C@H](C(=O)N[C@@H](CCCNC(=N)N)C(=O)N[C@@H](Cc1c[nH]cn1)C(=O)N[C@@H](C)C(=O)C(=O)NCCCCc1ccccc1)C(C)C [compound 2]
- IC50 (GlpG [5]): 132 ± 23 nM

SMILES: CC(=O)N[C@@H](CCCNC(=N)N)C(=O)N[C@@H](CCCNC(=N)N)C(=O)N[C@@H](CCCNC(=N)N)C(=O)N[C@@H](C)C(=O)N[C@H](C(=O)N[C@@H](Cc1ccccc1)C(=O)N[C@@H](CC(C)C)C(=O)N[C@@H](C)C(=O)Nc1ccc2c(C)cc(=O)oc2c1)C(C)C [compound 4, AcRRRAVFLA-4mc] (Ac-RRRAVFLA-{AMC})
- Cleavage of substrate by liposome-embedded PARL (PARL): are cleaved by liposome-embedded PARL but not its catalytic mutant
